The values below come from patent US20040087572A1, “Method for inhibiting cataracts” (priority 2003, published 2004).

The test system of series [1] is postmenopausal women (cataracts). In words: Phase 3 placebo-controlled clinical trial: cataract treatment-emergent signs and symptoms (TESS) events. It counts as in vivo, human. On the procedure:
A phase 3, multicenter, double-blind, placebo-controlled, randomized clinical trial was conducted. The trial included 7705 women (mean age 67 years old), who were an average of 19 years postmenopausal. These patients were randomly assigned to the following treatment protocol: raloxifene hydrochloride at 60 mg per day via oral administration, raloxifene at 120 mg per day, or placebo. The study was conducted for a period of 48 months. As a portion of the patient's overall evaluation, various clinical tests and parameters were measured at periodic intervals.
The following tables provide summaries of select cataract treatment-emergent signs and symptoms (“TESS”) events for various patient populations at the thirty-six and the forty-eight month mark of the clinical trial.

In series [2] the test system is endometrium / uterus. The note with it: clinical studies in women; cited from earlier work.
The test system of series [3] is chloride channels in the lens. The note with it: organ culture, clinically relevant concentrations; cited from earlier work.
Where [4] appears, read: All Randomized Patients, 36-Month Data, Rlx60 (60 mg per day oral), N = 2557.
The mark [5] stands for this setting: All Randomized Patients, 36-Month Data, Rlx120 (120 mg per day), N = 2572.
[6] abbreviates: All Randomized Patients, 48-Month Data, Rlx60 (60 mg per day oral), N = 2557.
Where [7] appears, read: All Randomized Patients, 48-Month Data, Rlx120 (120 mg per day), N = 2572.
Where [8] appears, read: Patients Not Reporting a Cataract-Related Current Condition at Baseline, 36-Month Data, Rlx60 (60 mg per day oral), N = 2394.
The mark [9] stands for this setting: Patients Not Reporting a Cataract-Related Current Condition at Baseline, 36-Month Data, Rlx120 (120 mg per day), N = 2418.
The mark [10] stands for this setting: Patients Not Reporting a Cataract-Related Current Condition at Baseline, 48-Month Data, Rlx60 (60 mg per day oral), N = 2385.
[11] abbreviates: Patients Not Reporting a Cataract-Related Current Condition at Baseline, 48-Month Data, Rlx120 (120 mg per day), N = 2408.
The mark [12] stands for this setting: Patients Reporting a Cataract-Related Current Condition at Baseline, 36-Month Data, Rlx60 (60 mg per day oral), N = 163.
The mark [13] stands for this setting: Patients Reporting a Cataract-Related Current Condition at Baseline, 36-Month Data, Rlx120 (120 mg per day), N = 154.
The mark [14] stands for this setting: Patients Reporting a Cataract-Related Current Condition at Baseline, 48-Month Data, Rlx60 (60 mg per day oral), N = 172.
[15] abbreviates: Patients Reporting a Cataract-Related Current Condition at Baseline, 48-Month Data, Rlx120 (120 mg per day), N = 164.

`Cl.O=C(c1ccc(OCCN2CCCCC2)cc1)c1c(-c2ccc(O)cc2)sc2cc(O)ccc12` [Rlx, [2-(4-hydroxyphenyl)-6-hydroxybenzo[b]thie-3-yl][4-[2-(1-piperidenyl)ethoxy]phenyl]methanone hydrochloride]: the “Dose dependence of the trend in cataract events” value in series [1] (120 mg per day vs 60 mg per day vs placebo) was “dose dependent”. Besides, the “Risk of cataracts (adverse events relating to cataracts) as compared to placebo” value in series [1] (7705 postmenopausal women, 60 or 120 mg per day, 48 months) is recorded as “trend toward decreasing risk of cataracts”. In addition, the “"Cataract Specified" event, number of patients” value in series [1] (setting [4]) amounted to 92; in series [1] (setting [5]) it was 82; in series [1] (setting [6]) it was 135; in series [1] (setting [7]), 122. In addition, the “"Cataract Specified" event, percent of patients” value in series [1] (setting [4]) came out at 3.6%; in series [1] (setting [5]), 3.2%; in series [1] (setting [6]) it was 5.3%; in series [1] (setting [7]) it was 4.7%. The “Any Cataract-related event, number of patients” value in series [1] (setting [4]) turned out to be 105; in series [1] (setting [5]) it was 101; in series [1] (setting [6]) it was 151; in series [1] (setting [7]), 140; in series [1] (setting [8]) it was 80; in series [1] (setting [9]), 83. For the same molecule, the “Any Cataract-related event, number of patients” value in series [1] (setting [10]) was determined as 120; in series [1] (setting [11]) it was 115; in series [1] (setting [12]) it was 25; in series [1] (setting [13]) it was 18; in series [1] (setting [14]) it was 31; in series [1] (setting [15]) it was 25. Further, the “Any Cataract-related event, percent of patients” value stood at 4.1% in series [1] (setting [4]); 3.9% in series [1] (setting [5]); 5.9% in series [1] (setting [6]); 5.4% in series [1] (setting [7]); 3.3% in series [1] (setting [8]); 3.4% in series [1] (setting [9]). The “Any Cataract-related event, percent of patients” value in series [1] (setting [10]) is reported as 5.0%; in series [1] (setting [11]) it was 4.8%; in series [1] (setting [12]), 15.3%; in series [1] (setting [13]), 11.7%; in series [1] (setting [14]) it was 18.0%; in series [1] (setting [15]), 15.2%. Moreover, the “Surgery for cataract, number of patients” value in series [1] (setting [4]) was determined as 60; in series [1] (setting [5]), 60; in series [1] (setting [6]), 85; in series [1] (setting [7]), 78. Also, the “Surgery for cataract, percent of patients” value amounted to 2.3% in series [1] (setting [4]), 2.3% in series [1] (setting [5]), 3.3% in series [1] (setting [6]) and 3.0% in series [1] (setting [7]). In series [2], the Endometrial cancer entry is “has not been associated with endometrial cancer”. The Endometrial stimulation result in series [2] is reported as “not associated with endometrial stimulation”.

For `CC/C(=C(\c1ccccc1)c1ccc(OCCN(C)C)cc1)c1ccccc1` [tamoxifen], in series [3], the “Effect on chloride channels” value is “blocked chloride channels”.
